Reference: ChEMBL document CHEMBL4811291, “Discovery of macrocyclic HDACs 1, 2, and 3 selective inhibitors for HIV latency reactivation” (Bioorg Med Chem Lett, 2021)

What was measured:
[1] = target: T1, Protein deacetylase HDAC6 (Homo sapiens, UniProt Q9UBN7); assay: Inhibition of HDAC6 (unknown origin)
T1 sequence (Q9UBN7 whole entry): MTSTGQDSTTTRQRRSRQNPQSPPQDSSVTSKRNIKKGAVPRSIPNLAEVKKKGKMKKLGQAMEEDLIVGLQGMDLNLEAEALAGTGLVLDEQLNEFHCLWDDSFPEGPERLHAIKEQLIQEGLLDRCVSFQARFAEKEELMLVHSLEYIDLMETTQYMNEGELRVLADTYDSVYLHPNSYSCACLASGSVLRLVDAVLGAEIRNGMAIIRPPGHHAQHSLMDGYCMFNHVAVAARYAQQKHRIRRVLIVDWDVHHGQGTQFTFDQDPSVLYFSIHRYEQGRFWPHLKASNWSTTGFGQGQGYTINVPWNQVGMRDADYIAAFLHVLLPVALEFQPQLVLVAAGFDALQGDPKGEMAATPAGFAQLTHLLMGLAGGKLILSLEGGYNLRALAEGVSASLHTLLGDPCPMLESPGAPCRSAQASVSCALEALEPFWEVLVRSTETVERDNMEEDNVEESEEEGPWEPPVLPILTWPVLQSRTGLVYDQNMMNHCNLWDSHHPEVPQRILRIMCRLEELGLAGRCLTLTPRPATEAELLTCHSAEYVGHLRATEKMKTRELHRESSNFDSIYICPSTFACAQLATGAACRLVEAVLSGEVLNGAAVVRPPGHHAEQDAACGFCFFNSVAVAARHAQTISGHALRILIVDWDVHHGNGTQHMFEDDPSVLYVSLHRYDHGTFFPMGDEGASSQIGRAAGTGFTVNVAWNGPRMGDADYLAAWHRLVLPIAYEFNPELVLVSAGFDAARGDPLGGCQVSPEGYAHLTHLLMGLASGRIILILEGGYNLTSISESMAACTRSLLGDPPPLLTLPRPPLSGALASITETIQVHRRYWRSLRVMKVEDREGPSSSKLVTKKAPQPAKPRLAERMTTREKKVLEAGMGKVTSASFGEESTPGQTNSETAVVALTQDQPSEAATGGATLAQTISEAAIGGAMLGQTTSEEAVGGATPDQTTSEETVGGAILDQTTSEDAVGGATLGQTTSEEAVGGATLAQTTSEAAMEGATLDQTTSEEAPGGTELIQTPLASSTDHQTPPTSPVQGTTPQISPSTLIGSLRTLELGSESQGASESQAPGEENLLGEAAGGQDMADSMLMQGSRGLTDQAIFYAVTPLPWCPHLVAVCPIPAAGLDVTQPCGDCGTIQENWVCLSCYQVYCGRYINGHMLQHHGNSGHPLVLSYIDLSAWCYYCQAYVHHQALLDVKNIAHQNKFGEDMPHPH

Histone deacetylase 8 = target: T2, Histone deacetylase 8 (Homo sapiens, UniProt Q9BY41); assay: Inhibition of HDAC8 (unknown origin)
T2 sequence (Q9BY41 whole entry): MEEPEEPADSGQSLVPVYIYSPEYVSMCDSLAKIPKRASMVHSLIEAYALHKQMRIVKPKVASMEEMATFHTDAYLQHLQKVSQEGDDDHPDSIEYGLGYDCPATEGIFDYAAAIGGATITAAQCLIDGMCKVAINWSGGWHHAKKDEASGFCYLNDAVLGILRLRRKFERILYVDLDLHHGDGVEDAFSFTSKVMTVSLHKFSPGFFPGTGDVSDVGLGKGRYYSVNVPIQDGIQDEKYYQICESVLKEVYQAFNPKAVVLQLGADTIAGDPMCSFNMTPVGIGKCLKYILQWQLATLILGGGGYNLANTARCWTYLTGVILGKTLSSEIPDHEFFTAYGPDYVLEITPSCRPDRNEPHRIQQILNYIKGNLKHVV

[2] = tested on: Human immunodeficiency virus; assay: Reactivation of HIV latency infected in human 2C4 cells in presence of 0.1 % NHS by luciferase reporter gene assay; type: functional, organism-based
[3] = tested on: Human immunodeficiency virus; assay: Reactivation of HIV latency infected in human 2C4 cells in presence of 5 % NHS by luciferase reporter gene assay; type: functional, organism-based
[4] = Half life in Wistar Han rat at 2 mg/kg, iv; type: ADME, organism-based; conditions: in vivo
[5] = Clearance in Wistar Han rat at 2 mg/kg, iv; type: ADME, organism-based; conditions: in vivo
[6] = AUC in Wistar Han rat at 10 mg/kg, po; type: ADME, organism-based; design: dose 10 mg/kg; conditions: in vivo
[7] = Tmax in Wistar Han rat at 10 mg/kg, po; type: ADME, organism-based; conditions: in vivo
[8] = Cmax in Wistar Han rat at 10 mg/kg, po; type: ADME, organism-based; design: route oral, dose 10 mg/kg; conditions: in vivo
[9] = Plasma concentration in Wistar Han rat at 10 mg/kg, po after 24 hrs; type: ADME, organism-based
[10] = Oral bioavailability in Wistar Han rat at 10 mg/kg; type: ADME, organism-based; conditions: in vivo
Histone deacetylase 1 = Histone deacetylase 1 (Homo sapiens, UniProt Q13547); assay: Inhibition of HDAC1 (unknown origin)
Chain of Histone deacetylase 1 (Q13547 whole entry): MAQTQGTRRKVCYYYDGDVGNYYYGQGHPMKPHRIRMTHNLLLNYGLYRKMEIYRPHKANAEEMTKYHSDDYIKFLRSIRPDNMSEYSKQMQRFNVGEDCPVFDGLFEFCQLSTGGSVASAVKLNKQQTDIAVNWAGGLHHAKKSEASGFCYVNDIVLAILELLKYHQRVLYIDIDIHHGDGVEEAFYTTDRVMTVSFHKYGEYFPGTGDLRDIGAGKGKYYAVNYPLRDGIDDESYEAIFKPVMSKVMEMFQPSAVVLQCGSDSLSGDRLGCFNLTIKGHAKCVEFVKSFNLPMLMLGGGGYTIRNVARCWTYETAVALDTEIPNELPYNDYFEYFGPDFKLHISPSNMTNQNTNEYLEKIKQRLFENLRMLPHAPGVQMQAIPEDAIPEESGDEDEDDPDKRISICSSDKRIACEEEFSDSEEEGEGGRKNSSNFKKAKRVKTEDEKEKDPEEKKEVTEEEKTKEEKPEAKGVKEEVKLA

Histone deacetylase 2 = Histone deacetylase 2 (Homo sapiens, UniProt Q92769); assay: Inhibition of HDAC2 (unknown origin)
Chain of Histone deacetylase 2 (Q92769 whole entry): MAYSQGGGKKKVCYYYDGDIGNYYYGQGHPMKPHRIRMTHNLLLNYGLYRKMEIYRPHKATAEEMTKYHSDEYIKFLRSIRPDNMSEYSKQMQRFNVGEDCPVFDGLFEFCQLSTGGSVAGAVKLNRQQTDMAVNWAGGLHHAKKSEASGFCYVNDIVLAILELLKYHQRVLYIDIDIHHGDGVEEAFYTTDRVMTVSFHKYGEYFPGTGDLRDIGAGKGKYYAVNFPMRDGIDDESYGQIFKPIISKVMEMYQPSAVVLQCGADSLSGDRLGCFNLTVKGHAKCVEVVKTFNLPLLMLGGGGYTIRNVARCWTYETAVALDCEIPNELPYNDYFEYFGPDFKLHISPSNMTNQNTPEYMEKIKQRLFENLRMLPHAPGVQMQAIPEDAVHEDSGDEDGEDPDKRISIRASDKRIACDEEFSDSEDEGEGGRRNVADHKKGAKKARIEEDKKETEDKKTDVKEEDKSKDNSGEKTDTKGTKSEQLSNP

Histone deacetylase 3 = Histone deacetylase 3 (Homo sapiens, UniProt O15379); assay: Inhibition of HDAC3 (unknown origin)
Chain of Histone deacetylase 3 (O15379 whole entry): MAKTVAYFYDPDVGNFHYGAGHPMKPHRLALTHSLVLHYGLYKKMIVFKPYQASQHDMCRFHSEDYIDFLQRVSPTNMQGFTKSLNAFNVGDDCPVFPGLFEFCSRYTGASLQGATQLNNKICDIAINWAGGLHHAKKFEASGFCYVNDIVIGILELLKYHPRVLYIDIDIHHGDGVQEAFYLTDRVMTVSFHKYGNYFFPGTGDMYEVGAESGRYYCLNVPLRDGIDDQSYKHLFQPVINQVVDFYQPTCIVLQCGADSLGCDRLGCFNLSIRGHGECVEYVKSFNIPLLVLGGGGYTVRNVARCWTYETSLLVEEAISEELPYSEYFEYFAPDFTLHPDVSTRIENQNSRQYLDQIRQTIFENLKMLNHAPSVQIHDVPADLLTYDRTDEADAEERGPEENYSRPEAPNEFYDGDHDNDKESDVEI

[11] = Half life in Wistar Han rat at 0.05 mg/kg, iv; type: ADME, organism-based; conditions: in vivo
[12] = Clearance in Wistar Han rat at 0.05 mg/kg, iv; type: ADME, organism-based; conditions: in vivo
Homo sapiens = species on record: Homo sapiens; assay: Selectivity ratio of IC50 for HDAC8 (unknown origin) to IC50 for HDAC6 (unknown origin)
[13] = Ratio of EC50 for reactivation of HIV latency infected in human 2C4 cells in presence of 5 % NHS by luciferase reporter gene assay to EC50 for reactivation of HIV latency infected in human 2C4 cells in presence of 0.1 % NHS by luciferase reporter gene assay; type: functional, Human immunodeficiency virus
[14] = Human immunodeficiency virus 1, 2C4

SMILES	IC50 [1]	IC50 (Histone deacetylase 8)	EC50 [2, 14]	EC50 [3, 14]	IC50 (Histone deacetylase 2)	other results
CCC(=O)CCCCC[C@@H]1NC(=O)[C@H]2CC23CCN(CCOCCn2ccc4cc(ccc4c2=O)-c2cnc1[nH]2)CC3	> 900 nM	> 900 nM	> 40000 nM	> 40000 nM	–	half-life [4]: 3.9 h; clearance [5]: 0.234 L/h/kg; AUC [6]: 110 nM·h; Tmax [7]: 0.25 h; Cmax [8]: 0.062 µM; concentration at 24 h [9]: 0.001 µM; bioavailability [10]: 0.15%
CCC(=O)CCCCC[C@@H]1NC(=O)C2CCN2CCCCCCOc2ccccc2-c2cnc1[nH]2 (stereo in doubt; 6)	5550 nM	8420 nM	1570 nM	3020 nM	668 nM	IC50 (Histone deacetylase 1): 218 nM; IC50 (Histone deacetylase 3): 105 nM
CCC(=O)CCCCC[C@H](NC(=O)[C@H]1CC12CCN(C)CC2)c1ncc(-c2ccc3c(=O)n(C)ccc3c2)[nH]1	–	–	–	130 nM	–	–
CCC(=O)CCCCC[C@@H]1NC(=O)[C@H]2CC23CCN(CCCCCCCCn2ccc4cc(ccc4c2=O)-c2cnc1[nH]2)CC3	> 900 nM	> 900 nM	14 nM	16 nM	–	IC50 (Histone deacetylase 3): 0.06 nM; half-life [11]: 2.8 h; clearance [12]: 18.7 L/h/kg; Ratio IC50 (Homo sapiens): > 1000; Ratio EC50 [13]: 1.1
CCC(=O)CCCCC[C@@H]1NC(=O)C2CCN2CCCCCOc2ccccc2-c2cnc1[nH]2 (stereo in doubt; 3)	–	–	–	–	8620 nM	IC50 (Histone deacetylase 1): 2560 nM; IC50 (Histone deacetylase 3): 791 nM
CCC(=O)CCCCC[C@H](NC(=O)[C@H]1CC12CCN(CC)CC2)c1[nH]c2nc1C(=O)NCCC/C=C/c1cccc-2c1	–	–	5240 nM	19300 nM	–	–
CCC(=O)CCCCC[C@@H]1NC(=O)[C@H]2CC23CCN(CCCCN2C4CCC2c2c(cccc24)-c2cnc1[nH]2)CC3 (stereo partly drawn)	> 900 nM	> 900 nM	6270 nM	9060 nM	24 nM	–
CCC(=O)CCCCC[C@@H]1NC(=O)[C@H]2CC23CCN(CCCCCn2c(=O)ccc4cc(ccc42)-c2cnc1o2)CC3	858 nM	> 900 nM	5150 nM	4730 nM	260 nM	IC50 (Histone deacetylase 1): 16 nM; IC50 (Histone deacetylase 3): 56 nM
CCC(=O)CCCCC[C@H](NC(=O)[C@H]1CC12CCN(C)CC2)c1ncc(-c2ccc3c(c2)C2CCC3C2)[nH]1 (stereo partly drawn)	–	–	351 nM	376 nM	3.7 nM	–
CCC(=O)CCCCC[C@@H]1NC(=O)[C@H]2CCCCN2C(=O)[C@H]([C@@H](C)CC)NC(=O)[C@H](Cc2cn(OC)c3ccccc23)NC1=O	–	–	–	–	–	EC50 ([2]; 2c4): 125 nM; EC50 ([3]; 2c4): 587 nM
CCC(=O)CCCCC[C@@H]1NC(=O)[C@H]2CC23CCN(CCCCCOc2ccc4cc(ccc4n2)-c2cnc1o2)CC3	> 900 nM	> 900 nM	> 40000 nM	> 40000 nM	–	–
CCC(=O)CCCCC[C@@H]1NC(=O)[C@H]2CC23CCN(CCCCCCCCn2ccc4cc(c(OC)cc4c2=O)-c2cnc1[nH]2)CC3	–	> 900 nM	11 nM	12 nM	–	half-life [4]: 1.4 h; clearance [5]: 5.76 L/h/kg; AUC [6]: 40 nM·h; Tmax [7]: 3 h; Cmax [8]: 0.013 µM; bioavailability [10]: 2.9%; Ratio IC50 (Homo sapiens): > 1000; Ratio EC50 [13]: 1.1
CCC(=O)CCCCC[C@@H]1NC(=O)[C@H]2CC23CCN(CCCOCCCn2ccc4cc(ccc4c2=O)-c2cnc1[nH]2)CC3	> 900 nM	–	1790 nM	1980 nM	–	–
CCC(=O)CCCCC[C@H](NC(=O)[C@H]1CC12CCN(CC)CC2)c1[nH]c2nc1C(=O)NCCCCCc1cccc-2c1	> 900 nM	> 900 nM	> 40000 nM	12000 nM	> 900 nM	–
